What all share (assay): LOEC (log10 uM (lowest observed effect concentration))
Compound in test [1]: O=S(=O)(O)C(F)(F)C(F)(F)C(F)(F)C(F)(F)C(F)(F)C(F)(F)C(F)(F)C(F)(F)F [Perfluorooctanesulfonic acid]
How it is done:
(§1)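 BioMAP Diversity Plus panel in human primary cell co-cultures, 4 concentrations in duplicate blinded samples. Responses are log10 fold change versus DMSO control, processed with tcpl v2.1.0. A hit is called when responses at any concentration exceed the cutoff (the larger of 3*bmad or log10(1.2)); the lowest observed effect concentration (modl_ga, log10 uM) is reported for hits.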

Compound in test [2]: O=C(O)C(F)(F)C(F)(F)C(F)(F)C(F)(F)C(F)(F)C(F)(F)C(F)(F)C(F)(F)Cl [9-Chloro-perfluorononanoic acid]
How it is done: as §1

Compound in test [3]: O=S(=O)(O)C(F)(F)C(F)(F)C(F)(F)C(F)(F)C(F)(F)C(F)(F)C(F)(F)C(F)(F)F [Potassium perfluorooctanesulfonate]
As to the method:
as §1

Compound in test [4]: C=CC(=O)OCCC(F)(F)C(F)(F)C(F)(F)C(F)(F)F [2-(Perfluorobutyl)ethyl acrylate]
How it is done: as §1

Compound in a further test: Cn1cnc([N+](=O)[O-])c1Sc1ncnc2[nH]cnc12 [Azathioprine]
As to the method: as §1

Compound in test [5]: O=C(O)C(F)(F)C(F)(F)C(F)(F)C(F)(F)C(F)(F)C(F)(F)C(F)(F)C(F)(F)C(F)(F)C(F)(F)C(F)(F)C(F)(F)F [Perfluorotridecanoic acid]
As to the method: as §1

Compound in test [6]: O=C(O)C(F)(F)OC(F)(F)C(F)(F)OC(F)(F)C(F)(F)C(F)(F)C(F)(F)F [Perfluoro-3,6-dioxadecanoic acid]
As to the method:
as §1

Compound in the next test: N=C(N)C(F)(F)C(F)(F)C(F)(F)C(F)(F)C(F)(F)C(F)(F)C(F)(F)F [Perfluorooctanamidine]
How it is done:
as §1

± gives the standard deviation of the averaged measurements.

For BE3C SRB down, the “LOEC (log10 uM)” value is 1.3 in test [1], 1.54 ± 0.34 in test [2] and 1.3 in test [3].

As to 3C TissueFactor down, the “LOEC (log10 uM)” value in test [4] stood at 1.54 ± 0.34.

On to KF3CT ICAM1 down, for which, in test [2], the “LOEC (log10 uM)” value came to 1.78.

In the case of BT Bcell Proliferation up, the “LOEC (log10 uM)” value in test [2] was found to be 1.78.

Consider BE3C uPA down, for which the “LOEC (log10 uM)” value in test [1] and in test [2] was 1.78 each time.

For the test system LPS TNFa down, the “LOEC (log10 uM)” value in the test with Azathioprine came to 1.48.

For the test system BF4T tPA down, the “LOEC (log10 uM)” value in test [2] is 1.3.

Regarding MyoF TIMP1 down, the “LOEC (log10 uM)” value in test [2] came to 1.78.

In the case of 4H VEGFRII down, the “LOEC (log10 uM)” value in test [5] worked out at 1.48.

For the test system 3C Eselectin up, the “LOEC (log10 uM)” value in test [2] is 1.78.

BF4T MCP1 down: the “LOEC (log10 uM)” value in test [6] is 0.573 ± 0.39; in test [2], 0.801 ± 0.71.

hDFCGF MMP1 down: the “LOEC (log10 uM)” value in test [2] amounted to 0.845.

For the test system BF4T ICAM1 down, the “LOEC (log10 uM)” value in test [2] was 1.78.

BE3C ICAM1 down: the “LOEC (log10 uM)” value in test [2] worked out at 1.78.

Regarding KF3CT uPA down, in test [2], the “LOEC (log10 uM)” value is 1.78.

In the case of hDFCGF TIMP2 down, the “LOEC (log10 uM)” value in test [1] came to 1.78; in test [2], 1.3; in test [3], 1.54 ± 0.34.

For hDFCGF MMP1 up, the “LOEC (log10 uM)” value in test [4] worked out at 1.54 ± 0.34.

For 3C Eselectin down, in test [4], the “LOEC (log10 uM)” value is 1.78.

In the case of SAg PBMCCytotoxicity down, the “LOEC (log10 uM)” value (in test [4]; with Perfluorooctanamidine) was 1.78 each time.

With BE3C tPA down, the results for the “LOEC (log10 uM)” value (in test [6]; with Azathioprine; in test [2]) were 1.78, 1.22 ± 0.37 and 1.78, respectively.

Take LPS SRB down: the “LOEC (log10 uM)” value in test [2] turned out to be 1.78.

On to SAg Eselectin down, for which the “LOEC (log10 uM)” value was 1.48 with Azathioprine and 1.78 in test [4].

For the test system IMphg VCAM1 down, the results for the “LOEC (log10 uM)” value (in the test with Perfluorooctanamidine; in test [2]; in test [5]) were 1.78, 1.78 and 1.22 ± 0.37, respectively.

In the case of BF4T IL8 up, in test [6], the “LOEC (log10 uM)” value was determined as 1.07 ± 0.32.

Turning to BT xIL17F down, the “LOEC (log10 uM)” value is 1.48 with Azathioprine and 1.3 in test [4].

With SAg Proliferation down, the results for the “LOEC (log10 uM)” value (with Azathioprine; in test [4]; with Perfluorooctanamidine) were 0.954, 1.54 ± 0.34 and 1.78, respectively.

As to LPS MCP1 down, the “LOEC (log10 uM)” value in test [2] worked out at 1.78.

In the case of BT xIL2 down, the “LOEC (log10 uM)” value came to 1.48 with Azathioprine and 1.78 in test [4].

As to IMphg CD40 down, the “LOEC (log10 uM)” value in test [6] is 1.78; with Azathioprine, 1.48; in test [2] it was 1.78; in test [5], 1.48.

As to SAg MCP1 down, the “LOEC (log10 uM)” value in test [4] and in test [2] was 1.78 each time.

For BF4T Keratin818 down, the “LOEC (log10 uM)” value in test [2] was determined as 1.78.

On to BE3C ITAC down, for which the entries for the “LOEC (log10 uM)” value in test [1], in test [2] and in test [3] were 1.54 ± 0.34, 1.3 and 1.3, respectively.

Regarding BF4T SRB down, the “LOEC (log10 uM)” value in test [2] came out at 1.78.

Regarding hDFCGF MCSF down, the “LOEC (log10 uM)” value in test [6] is 1.78; with Azathioprine, 1.48; in test [4] it was 1.3; in the test with Perfluorooctanamidine, 1.78; in test [2], 1.78; in test [3], 1.78.

SAg CD38 down: the “LOEC (log10 uM)” value in test [4] and in test [2] was 1.78 throughout.

As for LPS PGE2 down, the entries for the “LOEC (log10 uM)” value in test [6] and in test [2] were 1.3 and 1.78, respectively.

As to LPS CD69 down, the “LOEC (log10 uM)” value (in test [6]; in the test with Perfluorooctanamidine; in test [2]) was 1.78 in each case.

On to KF3CT MIG down, for which the “LOEC (log10 uM)” value in test [2] was 1.78.

For SAg CD69 down, the “LOEC (log10 uM)” value in the test with Azathioprine was 1.48; in test [4] it was 1.78; in test [2], 1.78.

Turning to MyoF ACTA1 down, in test [2], the “LOEC (log10 uM)” value is 1.78.

For MyoF TIMP1 up, the “LOEC (log10 uM)” value in test [6] is 1.3.

For the test system MyoF CollagenIII down, the “LOEC (log10 uM)” value in test [6] was 1.78; in test [2] it was 1.3.

As to BE3C IL1a down, the “LOEC (log10 uM)” value in test [6] turned out to be 1.78; in test [1], 1.78; in test [2] it was 1.54 ± 0.34.

Turning to IMphg CD69 down, the “LOEC (log10 uM)” value in test [6] and in test [2] was 1.78 in each case.

For BT xIL17A down, the results for the “LOEC (log10 uM)” value (in the test with Azathioprine; in test [4]) were 1.48 and 1.54 ± 0.34, respectively.

KF3CT MCP1 down: in test [2], the “LOEC (log10 uM)” value is 1.78.

Take BE3C ITAC up: the “LOEC (log10 uM)” value in test [6] was determined as 0.845.

For the origin of these results see the supplement of paper PMC10331698.
